Reference: patent US4382889A, “Epoxysuccinic acid derivatives” (Taisho Pharmaceutical Co., Ltd., priority 1979, dated 1983)

Molecular target: T1, papain (Carica papaya, UniProt P00784)
T1 construct: purchased Sigma Chem. Co
T1 sequence (P00784 134-345): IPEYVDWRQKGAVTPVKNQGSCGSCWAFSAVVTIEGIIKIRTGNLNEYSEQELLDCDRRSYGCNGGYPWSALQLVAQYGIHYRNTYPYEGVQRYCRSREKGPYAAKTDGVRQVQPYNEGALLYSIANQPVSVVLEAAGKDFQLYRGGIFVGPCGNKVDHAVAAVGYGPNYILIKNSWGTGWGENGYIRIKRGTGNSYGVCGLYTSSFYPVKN
Test: Papain inhibitory activity (method of K. Hanada et al)
Format: biochemical
Settings: papain 80 ug/ml, Sigma, 2 x cry.
Experimental: Papain inhibitory activity of the compounds of the present invention was assayed by the method of K. Hanada et al, [Argric. Biol. Chem., 42, No. 3, 523(1978)] using papain (80 ug/ml, Sigma Chem. Co., 2 x cry.).

With `CCOC(=O)C1OC1C(=O)N[C@@H](CC(C)C)C(=O)NC1CCCCC1` (mixture of isomers) [Compound 1, N-[N'-(DL-3-trans-ethoxycarbonyloxirane-2-carbonyl)-L-leucyl]cyclohexylamine] as the compound, how does the “Papain ID50 (amount of inhibitor for 50% inhibition)” value read?
Its value is 0.439 µg.

Which “Papain ID50 (amount of inhibitor for 50% inhibition)” value does the source give for `CCCCCCCCCCNC(=O)[C@H](CC(C)C)NC(=O)C1OC1C(=O)OCC` (mixture of isomers) [Compound 2, N-[N'-(DL-3-trans-ethoxycarbonyloxirane-2-carbonyl)-L-leucyl]-n-decylamine] here?
Its value is 0.227 µg.

How did the “Papain ID50 (amount of inhibitor for 50% inhibition)” value turn out when `CCOC(=O)C1OC1C(=O)N[C@@H](CC(C)C)C(=O)N1CCCC1` (mixture of isomers) [Compound 3, N-[N'-(DL-3-trans-ethoxycarbonyloxirane-2-carbonyl)-L-leucyl]pyrrolidine] was run?
Its value is 1.10 µg.

With `CCOC(=O)C1OC1C(=O)N[C@@H](CC(C)C)C(=O)N1CCCCC1` (mixture of isomers) [Compound 4, N-[N'-(DL-3-trans-ethoxycarbonyloxirane-2-carbonyl)-L-leucyl]piperidine] as the compound, how does the “Papain ID50 (amount of inhibitor for 50% inhibition)” value read?
Its value is 0.417 µg.

With `CC(C)C[C@H](NC(=O)C1OC1C(=O)OCc1ccccc1)C(=O)N(C)c1ccccc1` (mixture of isomers) [Compound 10, N-[N'-(DL-3-trans-benzyloxycarbonyloxirane-2-carbonyl)-L-leucyl]-N-methylaniline] as the compound, how does the “Papain ID50 (amount of inhibitor for 50% inhibition)” value read?
Its value is 0.510 µg.

`CC(C)C[C@H](NC(=O)C1OC1C(=O)OCc1ccccc1)C(=O)N(C)C` (mixture of isomers) [Compound 11, N-[N'-(DL-3-trans-benzyloxycarbonyloxirane-2-carbonyl)-L-leucyl]dimethylamine] was tested. Which “Papain ID50 (amount of inhibitor for 50% inhibition)” value did it give?
Its value is 0.184 µg.

With `CC(C)C[C@H](NC(=O)C1OC1C(=O)OC1CCCCC1)C(=O)NC1CCCCC1` (mixture of isomers) [Compound 13, N-[N'-(DL-3-trans-cyclohexyloxycarbonyloxirane-2-carbonyl)-L-leucyl]cyclohexylamine] as the compound, how does the “Papain ID50 (amount of inhibitor for 50% inhibition)” value read?
Its value is 0.255 µg.

For `CC(C)C[C@H](NC(=O)C1OC1C(=O)OC1CCCC1)C(=O)NC1CCCC1` (mixture of isomers) [Compound 14, N-[N'-(DL-3-trans-cycloentyloxycarbonyl)-L-leucyl]cyclopentylamine], which “Papain ID50 (amount of inhibitor for 50% inhibition)” value is on record?
The value was 0.187 µg.

`CC(C)C[C@H](NC(=O)C1OC1C(=O)OCc1ccccc1)C(=O)N[C@@H](CC(C)C)C(=O)OCc1ccccc1` (mixture of isomers) [Compound 17, N-(DL-3-trans-benzyloxycarbonyloxirane-2-carbonyl)-L-leucyl-L-leucine benzyl ester] was tested. Which “Papain ID50 (amount of inhibitor for 50% inhibition)” value did it give?
Its value is 0.255 µg.

Which “Papain ID50 (amount of inhibitor for 50% inhibition)” value does the source give for `CCOC(=O)C1OC1C(=O)N[C@@H](Cc1ccccc1)C(=O)N[C@@H](Cc1ccccc1)C(=O)OC` (mixture of isomers) [Compound 18, N-(DL-3-trans-ethoxycarbonyloxirane-2-carbonyl-L-phenylalanyl-L-phenylalaninemethyl ester] here?
Its value is 29.07 µg.

How did the “Papain ID50 (amount of inhibitor for 50% inhibition)” value turn out when `COC(=O)CC[C@H](NC(=O)[C@H](CC(C)C)NC(=O)C1OC1C(=O)OCc1ccccc1)C(=O)OC` (mixture of isomers) [Compound 20, N-(DL-3-trans-benzyloxycarbonyloxirane-2-carbonyl)-L-leucyl-L-gluamic acid dimethyl ester] was run?
Its value is 0.255 µg.

Which “Papain ID50 (amount of inhibitor for 50% inhibition)” value does the source give for `CC[C@H](C)[C@H](NC(=O)[C@H](CC(C)C)NC(=O)C1OC1C(=O)OCc1ccccc1)C(=O)OC` (mixture of isomers) [Compound 21, N-(DL-3 trans-benzyloxycarbonyloxirane-2-carbonyl)-L-leucyl-L-isoleucine methyl ester] here?
Its value is 0.169 µg.

How did the “Papain ID50 (amount of inhibitor for 50% inhibition)” value turn out when `COC(=O)[C@H](CC(C)C)NC(=O)[C@@H](CC(C)C)NC(=O)C1OC1C(=O)OCc1ccccc1` (mixture of isomers) [Compound 22, N-(DL-3-trans-benzyloxycarbonyloxirane-2-carbonyl)-D-leucyl-L-leucine methyl ester] was run?
The value was 8.28 µg.

`COC(=O)[C@@H](CC(C)C)NC(=O)[C@H](CC(C)C)NC(=O)C1OC1C(=O)OCc1ccccc1` (mixture of isomers) [Compound 23, N-(DL-3-trans-benzyloxycarbonyloxirane-2-carbonyl)-L-leucyl-D-leucine methyl ester] was tested. Which “Papain ID50 (amount of inhibitor for 50% inhibition)” value did it give?
The value was 0.221 µg.

Which “Papain ID50 (amount of inhibitor for 50% inhibition)” value does the source give for `COC(=O)[C@H](CCCN=C(N)N[N+](=O)[O-])NC(=O)[C@H](CC(C)C)NC(=O)C1OC1C(=O)OCc1ccccc1` (mixture of isomers) [Compound 26, N-(DL-3-trans-benzyloxycarbonyloxirane-2-carbonyl)-L-leucyl-N^G -nitro-L-arginine methyl ester] here?
Its value is 0.139 µg.

With `CC(C)C[C@H](NC(=O)C1OC1C(=O)O)C(=O)N[C@@H](CCCN)C(=O)O` (mixture of isomers) [Compound 44, N-(DL-3-trans-carboxyoxirane-2-carbonyl)-L-leucyl-L-ornithine] as the compound, how does the “Papain ID50 (amount of inhibitor for 50% inhibition)” value read?
The value was 0.250 µg.

For `COC(=O)[C@@H]1CCCN1C(=O)[C@H](CC(C)C)NC(=O)C1OC1C(=O)O` (mixture of isomers) [Compound 46, N-(DL-3-trans-carboxyoxirane-2-carbonyl)-L-leucyl-L-proline methyl ester], which “Papain ID50 (amount of inhibitor for 50% inhibition)” value is on record?
The value was 0.105 µg.

Which “Papain ID50 (amount of inhibitor for 50% inhibition)” value does the source give for `COC(=O)CC[C@H](NC(=O)[C@H](CC(C)C)NC(=O)C1OC1C(=O)O)C(=O)OC` (mixture of isomers) [Compound 47, N-(DL-3-transcarboxyoxirane-2-carbonyl)-L-leucyl-L-glutamic acid dimethyl ester] here?
Its value is 0.260 µg.

Which “Papain ID50 (amount of inhibitor for 50% inhibition)” value does the source give for `CC(C)C[C@H](NC(=O)C1OC1C(=O)O)C(=O)N[C@@H](CC(C)C)C(=O)OCc1ccccc1` (mixture of isomers) [Compound 48, N-(DL-3-trans-carboxyoxirane-2-carbonyl)-L-leucyl-L-leucine benzyl ester] here?
Its value is 0.215 µg.

Which “Papain ID50 (amount of inhibitor for 50% inhibition)” value does the source give for `CCOC(=O)C1OC1C(=O)N[C@@H](CC(C)C)C(=O)NC1CC1` (stereo partly drawn) [Compound 5] here?
Its value is 0.284 µg.

`CCOC(=O)C1OC1C(=O)N[C@@H](CC(C)C)C(=O)NC1CCCC1` (stereo partly drawn) [Compound 6] was tested. Which “Papain ID50 (amount of inhibitor for 50% inhibition)” value did it give?
The value was 0.410 µg.

How did the “Papain ID50 (amount of inhibitor for 50% inhibition)” value turn out when `CCOC(=O)C1OC1C(=O)N[C@@H](CC(C)C)C(=O)NCCC(C)C` (stereo partly drawn) [Compound 7] was run?
Its value is 0.410 µg.

For `CCOC(=O)C1OC1C(=O)N[C@@H](CC(C)C)C(=O)NCCc1ccccc1` (stereo partly drawn) [Compound 8], which “Papain ID50 (amount of inhibitor for 50% inhibition)” value is on record?
The value was 0.446 µg.

`CCCNC(=O)[C@H](CC(C)C)NC(=O)C1OC1C(=O)OCC` (stereo partly drawn) [Compound 9] was tested. Which “Papain ID50 (amount of inhibitor for 50% inhibition)” value did it give?
The value was 0.313 µg.

Which “Papain ID50 (amount of inhibitor for 50% inhibition)” value does the source give for `COC(=O)[C@@H](CC(C)C)NC(=O)[C@H](CC(C)C)NC(=O)[C@@H]1O[C@H]1C(=O)OCc1ccccc1` [Compound 24, N-(D-3-trans-benzyloxycarbonyloxirane-2-carbonyl)-L-leucyl-D-leucine methyl ester] here?
The value was 0.219 µg.

`COC(=O)[C@@H](CC(C)C)NC(=O)[C@H](CC(C)C)NC(=O)[C@H]1O[C@@H]1C(=O)OCc1ccccc1` [Compound 25, N-(L-3-trans-benzyloxycarbonyloxirane-2-carbonyl)-L-leucyl-D-leucine methyl ester] was tested. Which “Papain ID50 (amount of inhibitor for 50% inhibition)” value did it give?
Its value is 0.223 µg.

How did the “Papain ID50 (amount of inhibitor for 50% inhibition)” value turn out when `COC(=O)[C@H](CCSC)NC(=O)[C@H](CC(C)C)NC(=O)C1OC1C(=O)OCc1ccccc1` (stereo partly drawn) [Compound 27] was run?
Its value is 0.216 µg.

With `COC(=O)C1OC1C(=O)N[C@@H](CC(C)C)C(=O)N[C@@H](CCSC)C(=O)OC` (stereo partly drawn) [Compound 28] as the compound, how does the “Papain ID50 (amount of inhibitor for 50% inhibition)” value read?
Its value is 0.156 µg.

How did the “Papain ID50 (amount of inhibitor for 50% inhibition)” value turn out when `COC(=O)[C@@H](NC(=O)[C@H](CC(C)C)NC(=O)C1OC1C(=O)OCc1ccccc1)[C@@H](C)O` (stereo partly drawn) [Compound 29] was run?
Its value is 0.35 µg.

For `CCOC(=O)[C@H](Cc1ccccc1)NC(=O)[C@H](CC(C)C)NC(=O)C1OC1C(=O)OCc1ccccc1` (stereo partly drawn) [Compound 31], which “Papain ID50 (amount of inhibitor for 50% inhibition)” value is on record?
The value was 0.375 µg.

`COC(=O)[C@H](CC(C)C)NC(=O)[C@H](CC(C)C)NC(=O)C1OC1C(=O)OCc1ccccc1` (stereo partly drawn) [Compound 32] was tested. Which “Papain ID50 (amount of inhibitor for 50% inhibition)” value did it give?
The value was 0.227 µg.

`COC(=O)[C@@H](CC(C)C)NC(=O)[C@@H](CC(C)C)NC(=O)C1OC1C(=O)OCc1ccccc1` (stereo partly drawn) [Compound 33] was tested. Which “Papain ID50 (amount of inhibitor for 50% inhibition)” value did it give?
The value was 0.255 µg.

For `CC(C)C[C@H](NC(=O)[C@H](CC(C)C)NC(=O)C1OC1C(=O)OCc1ccccc1)C(N)=O` (stereo partly drawn) [Compound 34], which “Papain ID50 (amount of inhibitor for 50% inhibition)” value is on record?
The value was 0.298 µg.

`CCOC(=O)C1OC1C(=O)N[C@@H](CC(C)C)C(=O)N[C@@H](CC(C)C)C(=O)N(C)C` (stereo partly drawn) [Compound 35] was tested. Which “Papain ID50 (amount of inhibitor for 50% inhibition)” value did it give?
Its value is 0.212 µg.

For `COC(=O)[C@H](Cc1ccccc1)NC(=O)[C@H](Cc1ccccc1)NC(=O)C1OC1C(=O)OCc1ccccc1` (stereo partly drawn) [Compound 37], which “Papain ID50 (amount of inhibitor for 50% inhibition)” value is on record?
The value was 2.50 µg.

`CCC(C)[C@H](NC(=O)C1OC1C(=O)OCc1ccccc1)C(=O)N[C@@H](Cc1c[nH]c2ccccc12)C(=O)OC` (stereo partly drawn) [Compound 38] was tested. Which “Papain ID50 (amount of inhibitor for 50% inhibition)” value did it give?
Its value is 0.305 µg.

Which “Papain ID50 (amount of inhibitor for 50% inhibition)” value does the source give for `CCC(C)[C@H](NC(=O)C1OC1C(=O)OCc1ccccc1)C(=O)N[C@@H](Cc1ccc(O)cc1)C(=O)OC` (stereo partly drawn) [Compound 39] here?
Its value is 0.408 µg.

For `CCOC(=O)CNC(=O)[C@@H](NC(=O)C1OC1C(=O)OCc1ccccc1)C(C)CC` (stereo partly drawn) [Compound 40], which “Papain ID50 (amount of inhibitor for 50% inhibition)” value is on record?
Its value is 0.481 µg.

With `CCC(C)[C@H](NC(=O)C1OC1C(=O)OCc1ccccc1)C(=O)N[C@H](C(=O)OC)C(C)C` (stereo partly drawn) [Compound 41] as the compound, how does the “Papain ID50 (amount of inhibitor for 50% inhibition)” value read?
Its value is 0.272 µg.
